Measurements reported in ChEMBL document CHEMBL1201862, “PubChem BioAssay data set” (2004).
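Five concentrations, 48 hours, 96-well plates. Abbreviation: GI50, concentration required for 50% inhibition of growth.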 The source made the active and inactive calls. No stated cut-off is given here; in the data, active = GI50 up to about 1.1 µM and inactive = higher.

Tests used:
Assay in all cases: inhibition of tumour cell growth, NCI panel, 48 h
[1] = tested on: Hs-578T
[2] = tested on: NCI-H522
[3] = tested on: RPMI-8226
[4] = tested on: SK-MEL-5
[5] = tested on: BT-549
[6] = tested on: NCI/ADR-RES
[7] = tested on: HCT-15
[8] = tested on: UO-31
[9] = tested on: DU-145
[10] = tested on: PC-3
[11] = tested on: OVCAR-3
[12] = tested on: TK-10
[13] = tested on: SR
[14] = tested on: SK-MEL-28
[15] = tested on: KM12
[16] = tested on: CAKI-1
[17] = tested on: MOLT-4
[18] = tested on: HT-29
[19] = tested on: NCI-H460
[20] = tested on: CCRF-CEM

| Compound | GI50 [1] | GI50 [2] | GI50 [3] | GI50 [4] | GI50 [5] | GI50 [6] | GI50 [7] | GI50 [8] | GI50 [9] | GI50 [10] | GI50 [11] | GI50 [12] | GI50 [13] | GI50 [14] | GI50 [15] | GI50 [16] | GI50 [17] | GI50 [18] | GI50 [19] | GI50 [20] |
| --- | --- | --- | --- | --- | --- | --- | --- | --- | --- | --- | --- | --- | --- | --- | --- | --- | --- | --- | --- | --- |
| OCCCN=C1CCCCC1 | 69.8 µM (inactive) | 77.4 µM (inactive) | > 100 µM (inactive) | > 100 µM (inactive) | > 100 µM (inactive) | > 100 µM (inactive) | > 100 µM | > 100 µM (inactive) | > 100 µM (inactive) | > 100 µM (inactive) | > 100 µM (inactive) | > 100 µM (inactive) | > 100 µM (inactive) | > 100 µM (inactive) | > 100 µM (inactive) | > 100 µM (inactive) | > 100 µM (inactive) | > 100 µM (inactive) | > 100 µM (inactive) | – |
| COC(=O)C(Cc1ccccc1)NP(=O)(O)OCC1OC(n2cc(Br)c(=O)[nH]c2=O)CC1O (centres undefined) | > 100 µM (inactive) | > 100 µM (inactive) | – | > 100 µM (inactive) | > 100 µM (inactive) | > 100 µM (inactive) | > 100 µM | > 100 µM (inactive) | > 100 µM (inactive) | > 100 µM (inactive) | > 100 µM (inactive) | > 100 µM (inactive) | > 100 µM (inactive) | > 100 µM (inactive) | > 100 µM (inactive) | – | > 100 µM (inactive) | > 100 µM (inactive) | > 100 µM (inactive) | > 100 µM (inactive) |
| Cc1ccc(N(C=O)c2c([N+](=O)[O-])cc([N+](=O)[O-])c3c2=[N+]([O-])CN=3)cc1 | 29 µM (inactive) | 19.2 µM (inactive) | 20.7 µM (inactive) | 13.5 µM (inactive) | 18.7 µM (inactive) | 30.7 µM (inactive) | 15.4 µM | 29.3 µM (inactive) | 27.2 µM (inactive) | 20.4 µM (inactive) | 24.2 µM (inactive) | 35.9 µM (inactive) | 24.9 µM (inactive) | 49.4 µM (inactive) | 43.8 µM (inactive) | 32.3 µM (inactive) | 23.9 µM (inactive) | 49 µM (inactive) | > 100 µM (inactive) | – |
| CCOC(=O)/C(C#N)=C/c1ccnc2ccccc12 | > 100 µM (inactive) | > 100 µM (inactive) | 25.4 µM (inactive) | 31.7 µM (inactive) | 50.5 µM (inactive) | 13.5 µM (inactive) | 31.9 µM | – | > 100 µM (inactive) | 36.9 µM (inactive) | 53.7 µM (inactive) | > 100 µM (inactive) | 2.28 µM (inactive) | 88.5 µM (inactive) | 32.5 µM (inactive) | > 100 µM (inactive) | 63.5 µM (inactive) | > 100 µM (inactive) | > 100 µM (inactive) | – |
| Cc1ccc(NC(=O)CC(=O)N2N=C(N3CCCCC3)CC2c2ccccc2)cc1 (centres undefined) | > 100 µM (inactive) | > 100 µM (inactive) | – | > 100 µM (inactive) | > 100 µM (inactive) | > 100 µM (inactive) | > 100 µM | > 100 µM (inactive) | > 100 µM (inactive) | > 100 µM (inactive) | > 100 µM (inactive) | > 100 µM (inactive) | > 100 µM (inactive) | > 100 µM (inactive) | > 100 µM (inactive) | > 100 µM (inactive) | > 100 µM (inactive) | > 100 µM (inactive) | > 100 µM (inactive) | > 100 µM (inactive) |
| O=C(Nc1ccc(Br)c2ccccc12)c1ccc2ccccc2c1O | 2.79 µM (inactive) | 1.71 µM (inactive) | – | 1.61 µM (inactive) | 2.83 µM (inactive) | 2.72 µM (inactive) | 2.26 µM | 2.51 µM (inactive) | 3.89 µM (inactive) | 1.35 µM (inactive) | 3.37 µM (inactive) | 3.19 µM (inactive) | 6.44 µM (inactive) | 4.7 µM (inactive) | 2.9 µM (inactive) | 3.95 µM (inactive) | 2.32 µM (inactive) | 3.67 µM (inactive) | 2.23 µM (inactive) | 2.86 µM (inactive) |
| CC(C)=CCC[C@H](C)[C@H]1CC[C@@H](C)c2cc(O)c(C)cc21 | 19.9 µM (inactive) | 17.4 µM (inactive) | 26.1 µM (inactive) | 16.2 µM (inactive) | 17.9 µM (inactive) | 19.5 µM (inactive) | 18.3 µM | 14 µM (inactive) | 19.5 µM (inactive) | 17.4 µM (inactive) | 18.8 µM (inactive) | 18.4 µM (inactive) | – | 18.5 µM (inactive) | 17.3 µM (inactive) | 15.7 µM (inactive) | 21.4 µM (inactive) | 20.6 µM (inactive) | 18.4 µM (inactive) | 22.9 µM (inactive) |
| COC(=O)c1cc(-c2c[nH]cc2C(=O)OCc2ccccc2)cn1S(=O)(=O)c1ccc(C)cc1 | > 100 µM (inactive) | > 100 µM (inactive) | – | 4.16 µM (inactive) | 71.4 µM (inactive) | 66.7 µM (inactive) | > 100 µM | > 100 µM (inactive) | > 100 µM (inactive) | 36.7 µM (inactive) | > 100 µM (inactive) | > 100 µM (inactive) | > 100 µM (inactive) | – | > 100 µM (inactive) | > 100 µM (inactive) | > 100 µM (inactive) | > 100 µM (inactive) | 57.3 µM (inactive) | > 100 µM (inactive) |
